Converted amounts (≈) assume the structure as drawn.
Experiments:
Candida albicans A9540 [1] = assay: Intravenous Candida albicans infection mouse model, Table 2 part A; type: in vivo; details: drug administered once just after infection, 20 days after fungal challenge, method of Litchfield and Wilcoxon, male ICR mice
Description: Several compounds were also evaluated in an intravenous Candida albicans […] infection mouse model. The test organism was suspended in saline approximately 10 times the median lethal dose of the fungus (10⁶ cells/mouse) were used to infect intravenously male ICR mice weighing 20 to 24 g. Groups of five mice at each dose level were given the test compounds intravenously or intramuscularly. The 50% protective dose (PD₅₀) was calculated from survival rates recorded 20 or 21 days after the fungal challenge. Control animals died between 7 to 15 days.

FA21436 = assay: In vitro antifungal activity, serial agar dilution method (Table 1); type: cell-based, Asoergukkys flavus; details: for MIC: 40 h, pH 7, read-out: MIC, Asoergukkys flavus FA21436; for Partial Inhibition, Asoergukkys flavus FA21436: value in parentheses = Partial Inhibition, Sabouraud dextrose agar (pH 7.0), 28°C for 40 hours
Description: (§1) The inoculum size was adjusted to 10⁶ cells/ml, and a volume of approximately 0.003 ml of fungal suspension was applied to the surface of the antibiotic containing agar plates with a multiinoculator. After incubation, the lowest concentration of antibiotic causing virtually complete inhibition of fungal growth was determined as the minimum inhibitory concentration (MIC). Table 1. [table]

[2] = system: Fusarium moniliforme A2284; assay: as above; type: cell-based; details: Fusarium verticillioides, A2284; Sabouraud dextrose agar (pH 7.0); 28°C for 40 hours
Description: as §1

Candida albicans IAM4888 = assay: as above; type: cell-based; details: Sabouraud dextrose agar (pH 7.0), 28°C for 40 hours; for MIC: Candida albicans, IAM4888
Description: as §1

[3] = system: Aspergillus fumigatus IAM2530; assay: as above; type: cell-based; details: Sabouraud dextrose agar (pH 7.0), 28°C for 40 hours; for MIC: Aspergillus fumigatus, IAM2530
Description: as §1

Candida albicans A9540 [4] = assay: as above; type: cell-based; details: Sabouraud dextrose agar (pH 7.0), 28°C for 40 hours; for MIC: Candida albicans, A9540
Description: as §1

[5] = system: Aspergillus fumigatus IAM2034; assay: as above; type: cell-based; details: Sabouraud dextrose agar (pH 7.0), 28°C for 40 hours; for MIC: Aspergillus fumigatus, IAM2034; for Partial Inhibition, Aspergillus fumigatus IAM2034: value in parentheses = Partial Inhibition
Description: as §1

[6] = system: Trichophyton mentagrophytes #4329; assay: as above; type: cell-based; details: Sabouraud dextrose agar (pH 7.0), 28°C for 40 hours; for MIC: Trichophyton mentagrophytes
Description: as §1

Mucor spinosus IFO5317 = assay: as above; type: cell-based; details: Sabouraud dextrose agar (pH 7.0), 28°C for 40 hours; for MIC: Mucor spinosus, IFO5317; for Partial Inhibition, Mucor spinosus IFO5317: value in parentheses = Partial Inhibition
Description: as §1

[7] = system: Cryptococcus neoformans D49; assay: as above; type: cell-based; details: Cryptococcus neoformans, D49, 40 h, pH 7, read-out: MIC, Cryptococcus neoformans D49
Description: as §1

[8] = system: Cryptococcus neoformans IAM4514; assay: as above; type: cell-based; details: Cryptococcus neoformans, IAM4514; Sabouraud dextrose agar (pH 7.0); 28°C for 40 hours
Description: as §1

[9] = system: Petriellidium boydii IFO8078; assay: as above; type: cell-based; details: Scedosporium boydii, IFO8078; Sabouraud dextrose agar (pH 7.0); 28°C for 40 hours
Description: as §1

[10] = system: Blastomyces dermatidis D40; assay: as above; type: cell-based; details: for MIC: Blastomyces, D40, 40 h, pH 7, read-out: MIC, Blastomyces dermatidis D40; for Partial Inhibition, Blastomyces dermatidis D40: value in parentheses = Partial Inhibition, Sabouraud dextrose agar (pH 7.0), 28°C for 40 hours
Description: as §1

[11] = system: Sprotricosis schenckii IFO8158; assay: as above; type: cell-based; details: for MIC: 40 h, pH 7, read-out: MIC, Sprotricosis schenckii IFO8158; for Partial Inhibition, Sprotricosis schenckii IFO8158: value in parentheses = Partial Inhibition, Sabouraud dextrose agar (pH 7.0), 28°C for 40 hours
Description: as §1

[12] = system: Trichophyton mentagrophytes D155; assay: as above; type: cell-based; details: Trichophyton mentagrophytes, D155; Sabouraud dextrose agar (pH 7.0); 28°C for 40 hours
Description: as §1

[13] = value in parentheses = Partial Inhibition

Description for physchem: The sample (3 ∼ 3.5 mg) was suspended in 1 ml of PBS(-) or PBS(+), sonicated at 30°C for 10 minutes, and allowed to stand at room temperature for 2 hours. The resulting solution or suspension was centrifuged at 12,000 rpm for 10 minutes. The supernatant (pH 6.7 ∼ 7.2) was diluted (5 x or 50 x) with 0.01N NaOH (pH ca. 11.5) and its UV absorption at 500 nm was measured. The solubility was assessed by the absorption coefficient value with reference to the standard. […] The zwitterionic form sample was used for the solubility test as it is. The hydrochloride salt sample (3 mg) was dissolved in 3 ml of distilled water and neutralized with 0.01N NaOH, and then the solution was lyophilized to give a test sample.
Dulbecco's phosphate buffered saline (PBS) solution was used. Preparation of PBS(-) solution: One PBS(-) tablet (Flow Laboratories, Cat. No. 28-103-05) was dissolved in 100 ml distilled water, and the solution was autoclaved for 10 minutes at 115°C. This solution contains 0.2 g/L of KCl, 0.2 g/L of KH₂PO₄, 8 g/L of NaCl, and 1.15 g/L of Na₂HPO₄. Preparation of PBS(+) solution: One PBS(-) tablet was dissolved in 80 ml distilled water; 10 mg of CaCl₂ was dissolved in 10 ml distilled water; 10 mg of MgCl₂, 6H₂O was dissolved in 10 ml distilled water. These solutions were separately autoclaved, as described above, and mixed when cooled.

| Compound | PD₅₀ (Candida albicans A9540 [1]) | MIC (FA21436) | Partial Inhibition, Asoergukkys flavus FA21436 (FA21436) | MIC [2] | MIC (Candida albicans IAM4888) | MIC [3] | MIC (Candida albicans A9540 [4]) | MIC [5] | MIC [6] | MIC (Mucor spinosus IFO5317) | Partial Inhibition, Mucor spinosus IFO5317 (Mucor spinosus IFO5317) | MIC [7] | MIC [8] | MIC [9] | MIC [10] | MIC [11] | MIC [12] | solubility at 2 h (physchem; Method II (+): PBS(+)) | Partial Inhibition, Aspergillus fumigatus IAM2034 [5] | solubility at 2 h (physchem; Method II (-): PBS(-)) | further results |
| --- | --- | --- | --- | --- | --- | --- | --- | --- | --- | --- | --- | --- | --- | --- | --- | --- | --- | --- | --- | --- | --- |
| COc1cc(O)c2c(c1)C(=O)c1c(cc3c(c1O)-c1c(cc(C)c(C(=O)N[C@H](C)C(=O)O)c1O)[C@H](O[C@@H]1O[C@H](C)[C@H](N(C)C(=O)CCN)[C@H](O[C@@H]4OC[C@@H](O)[C@H](O)[C@H]4O)[C@H]1O)[C@H]3O)C2=O [Ex. 11, N-(β-alanyl) pradimicin A] | 36 mg/kg | > 100 µg/mL | >100.0 (100.0) µg/ml | > 100 µg/mL | 12.5 µg/mL (≈ 13.7 µM) | 50 µg/mL (≈ 54.8 µM) | 12.5 µg/mL (≈ 13.7 µM) | 100 µg/mL (≈ 110 µM) | 100 µg/mL (≈ 110 µM) | > 100 µg/mL | 25.0 µg/mL | 1.6 µg/mL (≈ 1.75 µM) | 1.6 µg/mL (≈ 1.75 µM) | > 100 µg/mL | 12.5 µg/mL (≈ 13.7 µM) | 6.3 µg/mL (≈ 6.91 µM) | 100 µg/mL (≈ 110 µM) | 0.25 mg/mL (≈ 274 µM) | – | – | Partial Inhibition, Candida albicans IAM4888 (Candida albicans IAM4888; [13]): 6.3 µg/mL; Partial Inhibition, Candida albicans A9540 (Candida albicans A9540 [4]; [13]): 6.3 µg/mL |
| CCOC(=O)CN(C)[C@@H]1[C@H](O[C@@H]2OC[C@@H](O)[C@H](O)[C@H]2O)[C@@H](O)[C@H](O[C@H]2c3cc(C)c(C(=O)N[C@H](C)C(=O)O)c(O)c3-c3c(cc4c(c3O)C(=O)c3cc(OC)cc(O)c3C4=O)[C@@H]2O)O[C@@H]1C [Ex. 3, N-(ethoxycarbonylmethyl) pradimicin A] | 18 mg/kg | > 100 µg/mL | 50.0 µg/mL | > 100 µg/mL | 25 µg/mL (≈ 27 µM) | 50 µg/mL (≈ 53.9 µM) | 50 µg/mL (≈ 53.9 µM) | > 100 µg/mL | > 100 µg/mL | > 100 µg/mL | >100.0 (100.0) µg/ml | 6.3 µg/mL (≈ 6.8 µM) | 6.3 µg/mL (≈ 6.8 µM) | > 100 µg/mL | 100 µg/mL (≈ 108 µM) | 25 µg/mL (≈ 27 µM) | > 100 µg/mL | – | >100.0 (100.0) µg/ml | 11 mg/mL (≈ 11900 µM) | Partial Inhibition, Aspergillus fumigatus IAM2530 [3, 13]: 25.0 µg/mL; Partial Inhibition, Blastomyces dermatidis D40 [10]: 12.5 µg/mL; Partial Inhibition, Sprotricosis schenckii IFO8158 [11]: 12.5 µg/mL |
| COc1cc(O)c2c(c1)C(=O)c1c(cc3c(c1O)-c1c(cc(C)c(C(=O)N[C@H](C)C(=O)O)c1O)[C@H](O[C@@H]1O[C@H](C)[C@H](NCS(=O)(=O)O)[C@H](O[C@@H]4OC[C@@H](O)[C@H](O)[C@H]4O)[C@H]1O)[C@H]3O)C2=O [Ex. 7, N-(sodiosulfomethyl) pradimicin C] | 7.2 mg/kg | > 50 µg/mL | 3.1 µg/mL | > 50 µg/mL | 3.1 µg/mL (≈ 3.37 µM) | 3.1 µg/mL (≈ 3.37 µM) | 3.1 µg/mL (≈ 3.37 µM) | > 50 µg/mL | 25 µg/mL (≈ 27.1 µM) | > 50 µg/mL | – | 0.4 µg/mL (≈ 0.434 µM) | 0.4 µg/mL (≈ 0.434 µM) | > 50 µg/mL | 3.1 µg/mL (≈ 3.37 µM) | 1.6 µg/mL (≈ 1.74 µM) | 50 µg/mL (≈ 54.3 µM) | – | – | 0.003 mg/mL (≈ 3.26 µM) | Partial Inhibition, Trichophyton mentagrophytes #4329 [6, 13]: 3.1 µg/mL |
| COc1cc(O)c2c(c1)C(=O)c1c(cc3c(c1O)-c1c(cc(C)c(C(=O)N[C@H](C)C(=O)O)c1O)[C@H](O[C@@H]1O[C@H](C)[C@H](N(C)CC(N)=O)[C@H](O[C@@H]4OC[C@@H](O)[C@H](O)[C@H]4O)[C@H]1O)[C@H]3O)C2=O [Ex. 2, N-(carbamoylmethyl) pradimicin A] | 29 mg/kg | > 100 µg/mL | 50.0 µg/mL | > 100 µg/mL | 25 µg/mL (≈ 27.8 µM) | 12.5 µg/mL (≈ 13.9 µM) | 50 µg/mL (≈ 55.7 µM) | > 100 µg/mL | > 100 µg/mL | > 100 µg/mL | >100.0 (100.0) µg/ml | 12.5 µg/mL (≈ 13.9 µM) | 3.1 µg/mL (≈ 3.45 µM) | > 100 µg/mL | 25 µg/mL (≈ 27.8 µM) | 25 µg/mL (≈ 27.8 µM) | > 100 µg/mL | – | 50.0 µg/mL | 11 mg/mL (≈ 12300 µM) | Partial Inhibition, Blastomyces dermatidis D40 [10]: 12.5 µg/mL; Partial Inhibition, Sprotricosis schenckii IFO8158 [11]: 12.5 µg/mL |
| COc1cc(O)c2c(c1)C(=O)c1c(cc3c(c1O)-c1c(cc(C)c(C(=O)N[C@H](C)C(=O)O)c1O)[C@H](O[C@@H]1O[C@H](C)[C@H](N(C)CC(=O)O)[C@H](O[C@@H]4OC[C@@H](O)[C@H](O)[C@H]4O)[C@H]1O)[C@H]3O)C2=O [Ex. 1, N-(carboxymethyl) pradimicin A] | 45 mg/kg | > 100 µg/mL | – | > 100 µg/mL | 50 µg/mL (≈ 55.6 µM) | 100 µg/mL (≈ 111 µM) | 50 µg/mL (≈ 55.6 µM) | > 100 µg/mL | > 100 µg/mL | > 100 µg/mL | >100.0 (100.0) µg/ml | 25 µg/mL (≈ 27.8 µM) | 12.5 µg/mL (≈ 13.9 µM) | > 100 µg/mL | > 100 µg/mL | > 100 µg/mL | > 100 µg/mL | > 31 mg/mL | 50.0 µg/mL | > 30 mg/mL | Partial Inhibition, Blastomyces dermatidis D40 [10]: 50.0 µg/mL; Partial Inhibition, Sprotricosis schenckii IFO8158 [11]: 50.0 µg/mL |
| COc1cc(O)c2c(c1)C(=O)c1c(cc3c(c1O)-c1c(cc(C)c(C(=O)N[C@H](C)C(=O)O)c1O)[C@H](O[C@@H]1O[C@H](C)[C@H](N(C)C(=O)CN)[C@H](O[C@@H]4OC[C@@H](O)[C@H](O)[C@H]4O)[C@H]1O)[C@H]3O)C2=O [Ex. 10, N-glycyl pradimicin A] | 30 mg/kg | > 100 µg/mL | – | > 100 µg/mL | 6.3 µg/mL (≈ 7.02 µM) | 12.5 µg/mL (≈ 13.9 µM) | 12.5 µg/mL (≈ 13.9 µM) | 100 µg/mL (≈ 111 µM) | 12.5 µg/mL (≈ 13.9 µM) | > 100 µg/mL | – | 1.6 µg/mL (≈ 1.78 µM) | 1.6 µg/mL (≈ 1.78 µM) | – | 12.5 µg/mL (≈ 13.9 µM) | 12.5 µg/mL (≈ 13.9 µM) | 12.5 µg/mL (≈ 13.9 µM) | 1 mg/mL (≈ 1110 µM) | – | – | – |
| COc1cc(O)c2c(c1)C(=O)c1c(cc3c(c1O)-c1c(cc(C)c(C(=O)N[C@H](C)C(=O)O)c1O)[C@H](O[C@@H]1O[C@H](C)[C@H](N(C)C=O)[C@H](O[C@@H]4OC[C@@H](O)[C@H](O)[C@H]4O)[C@H]1O)[C@H]3O)C2=O [Ex. 9, N-formyl pradimicin A] | >50 mg/kg | > 100 µg/mL | – | > 100 µg/mL | 25 µg/mL (≈ 28.8 µM) | 50 µg/mL (≈ 57.6 µM) | 25 µg/mL (≈ 28.8 µM) | 50 µg/mL (≈ 57.6 µM) | 25 µg/mL (≈ 28.8 µM) | > 100 µg/mL | 50.0 µg/mL | 25 µg/mL (≈ 28.8 µM) | 12.5 µg/mL (≈ 14.4 µM) | – | 100 µg/mL (≈ 115 µM) | 50 µg/mL (≈ 57.6 µM) | 25 µg/mL (≈ 28.8 µM) | > 32 mg/mL | – | – | – |

Source: patent EP0428132A1, “Pradimicin derivatives” (Bristol-Myers Squibb Company, priority 1989, dated 1991)
